Measurements from paper PMC6508677, “Identification of druggable small molecule antagonists of the Plasmodium falciparum hexose transporter PfHT and assessment of ligand access to the glucose permeation pathway via FLAG-mediated protein engineering” (PLoS ONE, 2019).
Several values for one entry are separate records, joined by “and”; a condition that tells them apart may be missing. Equal values may be shown once. Read-outs that look alike come from different tables or passages of the source.

How the values were obtained:
[1] = system: P. falciparum strain 3D7 freed parasites; test: 2-DG uptake by isolated freed P. falciparum parasites; format: cell-based, Plasmodium falciparum
Procedure: Glucose uptake by P. falciparum was performed essentially as described. P. falciparum strain 3D7 was cultured in 100 mm tissue culture dishes (Techno Plastic Products) in a 2% suspension of human erythrocytes and RPMI 1640 medium until reaching > 7.5% parasitemia. Cells were pelleted via centrifugation and resuspended in RPMI 1640 medium. To determine the uptake of radiolabeled glucose into the parasite, parasites were isolated from infected erythrocytes by permeablization with saponin (0.05 w/v), followed by centrifugation, aspiration of supernatant and washing of the pellet 3X with saline solution (135 mM NaCl, 2 mM KCl, 25 mM HEPES, 0.2 mM glucose and 1 mM MgCl2; pH 7.1) to remove cellular debris. WU-1 or DMSO vehicle were added to 100 μl parasites (resuspended in saline) 5 min prior to the addition of 100 μl [^14C]2-DOG (0.2- μCi/ml final concentration). 2-DG uptake was stopped after 2 min by layering the entire reaction over 300 μl of an oil mixture (5:4 mix of dibutyl phthalate / dinonyl phthalate) in Eppendorf tubes and centrifuged at 15,850 × g for 2 mins. The ratio of the estimated intracellular concentration of radiolabel relative to the extracellular concentration were calculated as described. Uptake of radiolabeled hexose into HEK293 cells was measured in glucose-free HBSS as described previously. Briefly, cells were plated at 400,000 cells/well overnight at 37°C in 24-well plates pre-treated with PEI. After 30-min incubation at 37°C in glucose-free HBSS in the presence of vehicle or increasing concentrations of compound, 2-DG uptake was measured in glucose-free HBSS for 4 min at 37°C. Cultures were washed in ice-cold 1X PBS and lysed in 0.1% Triton X-100 in 1X PBS. Radiolabeled hexose uptake was determined by liquid scintillation counting (Ultima Gold, Thermo Fisher) and normalized to total protein per well. Uptake data are plotted as percent uptake relative to vehicle-treated cells. Kinetic analyses were performed using the indicated concentrations of substrate and WU-1, with quenching of uptake after 1 min incubation. Incubation times had been previously determined as being in the linear range of time-dependent radiolabeled hexose uptake (2 min for 2-DG uptake into freed parasites; 2 and 4 min for D-Frc and 2-DG uptake HEK cell lines, respectively). Data were fit by least squares nonlinear regression analysis using GraphPad Prism 6.0 software.

PfHT [2] = target: T1, PfHT (Plasmodium falciparum, UniProt Q7KWJ5); test: [3H]-D-glucose specific uptake into liposomes containing purified PfHT; format: biochemical; parameters: expressed in transfected cells; host or cells: HEK293 (HEK293-FLIP, native hGLUT1 knocked down by shRNA); settings: for D-Glc - L-Glc Uptake, Ave / D-Glc - L-Glc Uptake, individual experiments: PfHT liposomes
T1 sequence (Q7KWJ5 1-504): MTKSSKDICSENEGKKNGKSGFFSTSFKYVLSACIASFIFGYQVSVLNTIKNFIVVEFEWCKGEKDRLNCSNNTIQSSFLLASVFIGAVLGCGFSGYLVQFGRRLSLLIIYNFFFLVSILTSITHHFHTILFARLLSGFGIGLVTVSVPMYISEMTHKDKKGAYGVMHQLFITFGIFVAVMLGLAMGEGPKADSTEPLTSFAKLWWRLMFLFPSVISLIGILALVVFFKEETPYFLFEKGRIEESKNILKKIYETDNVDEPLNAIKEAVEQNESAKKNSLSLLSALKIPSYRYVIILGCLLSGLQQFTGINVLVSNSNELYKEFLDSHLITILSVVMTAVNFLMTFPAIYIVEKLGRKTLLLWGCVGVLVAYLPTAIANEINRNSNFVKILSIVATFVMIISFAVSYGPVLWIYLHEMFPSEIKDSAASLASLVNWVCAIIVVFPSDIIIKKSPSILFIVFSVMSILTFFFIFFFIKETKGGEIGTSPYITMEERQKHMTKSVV

PfHT [3] = target: T1, PfHT; test: ATB-BMPA photolabel binding to PfHT liposomes; parameters: expressed in transfected cells
Procedure: WU-1 inhibitor was added to PfHT liposomes for 10 min at room temperature. Samples (final volume, 110 μl) were then incubated for 10 min at room temperature with biotinylated ATB-BMPA (50 μM final concentration) and then placed on ice prior to UV irradiation. Reactions were transferred to a 24-well low protein retention culture dish (Costar, Corning, NY) and then irradiated at room temperature 5 cm from a Green Spot UV lamp for 1 min (30 sec of light followed by 30 sec of darkness followed by 30 sec of light). Unbound ATB-BMPA was removed using a 0.5 ml Zeba Spin Column (Thermo Scientific, Rockford, IL). Samples were analyzed by immunoblot analysis using a fluorescently labeled streptavidin (LI-COR Biosciences, Lincoln, NE). The amount of PfHT protein in each sample was quantified by SDS-PAGE stained with Blue BANDIT protein stain using a BSA standard curve. The streptavidin signal was then normalized to the amount of PfHT protein.

Cc1ccc(S(=O)(=O)CCNC(=O)c2c(-c3c(Cl)cccc3Cl)noc2C)cc1 [WU-1, 3-(2,6-dichlorophenyl)-5-methyl-N-[2-(4-methylbenzenesulfonyl)ethyl]-1,2-oxazole-4-carboxamide]
2-DG uptake by freed parasites (normalised to 100), AVE per experiment ([1]; 0.001 µM WU-1): 100.00
2-DG uptake by freed parasites (normalised to 100), AVE per experiment ([1]; 8.33 µM WU-1): 54.38 and 56.80 and 54.68
2-DG uptake by freed parasites (normalised to 100), AVE per experiment ([1]; 25 µM WU-1): 40.52 and 37.08 and 35.20
2-DG uptake by freed parasites (normalised to 100), AVE per experiment ([1]; 75 µM WU-1): 20.23 and 31.42 and 24.43
2-DG uptake by freed parasites (normalised to 100), AVE per experiment ([1]; 225 µM WU-1): 17.01 and 18.91 and 19.76
IC50 ([1]; Expt 1-3, read-out: IC50 for 2-DG uptake by freed parasites, individual experiments): 6.6 µM and 4.5 µM
IC50 ([1]; Plasmodium falciparum, 3D7, Expt 1-3, read-out: IC50 for 2-DG uptake by freed parasites, individual experiments): 7.2 µM
IC50 ([1]; Plasmodium falciparum, 3D7, isolated P. falciparum trophozoites, mean, read-out: IC50 for 2-DG uptake by freed parasites): 6.1 ± 0.8 µM
IC50 (PfHT [2]; IC50 for specific D-glucose uptake (D-glucose minus L-glucose) into PfHT liposomes, purified PfHT, zero-trans, mean): 5.9 ± 0.8 µM
IC50 (PfHT [2]; IC50 for specific D-glucose uptake into PfHT liposomes, individual experiments, Expt 1-3): 7.34 µM and 4.58 µM and 5.92 µM
D-Glc - L-Glc Uptake, Ave (PfHT [2]; 0.001 µM WU-1): 21.51 pmol/µg PfHT
D-Glc - L-Glc Uptake, individual experiments (PfHT [2]; 0.001 µM WU-1): 20.93 pmol/µg PfHT and 22.42 pmol/µg PfHT and 21.19 pmol/µg PfHT
D-Glc - L-Glc Uptake, Ave (PfHT [2]; 0.625 µM WU-1): 22.79 pmol/µg PfHT
D-Glc - L-Glc Uptake, individual experiments (PfHT [2]; 0.625 µM WU-1): 21.85 pmol/µg PfHT and 22.43 pmol/µg PfHT and 24.08 pmol/µg PfHT
D-Glc - L-Glc Uptake, Ave (PfHT [2]; 1.25 µM WU-1): 19.33 pmol/µg PfHT
D-Glc - L-Glc Uptake, individual experiments (PfHT [2]; 1.25 µM WU-1): 16.67 pmol/µg PfHT and 24.18 pmol/µg PfHT and 17.15 pmol/µg PfHT
D-Glc - L-Glc Uptake, Ave (PfHT [2]; 2.5 µM WU-1): 18.48 pmol/µg PfHT
D-Glc - L-Glc Uptake, individual experiments (PfHT [2]; 2.5 µM WU-1): 16.28 pmol/µg PfHT and 15.54 pmol/µg PfHT and 23.61 pmol/µg PfHT
D-Glc - L-Glc Uptake, Ave (PfHT [2]; 5 µM WU-1): 10 pmol/µg PfHT
D-Glc - L-Glc Uptake, individual experiments (PfHT [2]; 5 µM WU-1): 13.49 pmol/µg PfHT and 7.15 pmol/µg PfHT and 9.35 pmol/µg PfHT
D-Glc - L-Glc Uptake, Ave (PfHT [2]; 10 µM WU-1): 7.99 pmol/µg PfHT
D-Glc - L-Glc Uptake, individual experiments (PfHT [2]; 10 µM WU-1): 7.38 pmol/µg PfHT and 9.19 pmol/µg PfHT and 7.39 pmol/µg PfHT
D-Glc - L-Glc Uptake, Ave (PfHT [2]; 20 µM WU-1): 5.15 pmol/µg PfHT
D-Glc - L-Glc Uptake, individual experiments (PfHT [2]; 20 µM WU-1): 6.58 pmol/µg PfHT and 4.82 pmol/µg PfHT and 4.04 pmol/µg PfHT
D-Glc - L-Glc Uptake, Ave (PfHT [2]; 40 µM WU-1): 2.74 pmol/µg PfHT
D-Glc - L-Glc Uptake, individual experiments (PfHT [2]; 40 µM WU-1): 3.05 pmol/µg PfHT and 1.92 pmol/µg PfHT and 3.24 pmol/µg PfHT
D-Glc - L-Glc Uptake, Ave (PfHT [2]; 80 µM WU-1): -0.29 pmol/µg PfHT
D-Glc - L-Glc Uptake, individual experiments (PfHT [2]; 80 µM WU-1): 0.605 pmol/µg PfHT and -1.53 pmol/µg PfHT and 0.06 pmol/µg PfHT
D-Glc - L-Glc Uptake, Ave (PfHT [2]; 160 µM WU-1): -0.167 pmol/µg PfHT
D-Glc - L-Glc Uptake, individual experiments (PfHT [2]; 160 µM WU-1): 0.75 pmol/µg PfHT and -0.06 pmol/µg PfHT and -1.19 pmol/µg PfHT
decrease of biotinylated ATB-BMPA photolabel binding to PfHT (PfHT [3]; 10 μM WU-1, PfHT liposomes): ~ 60%
ATB-BMPA labeling, Strep signal (PfHT [3]; 10µM WU-1, individual samples): 15.08 and 15.68 and 15.48
ATB-BMPA labeling, Strep/Protein (PfHT [3]; 10µM WU-1, individual samples): 1.91 and 1.96 and 1.99
ATB-BMPA labeling, Strep/Protein normalized to 100% Control (PfHT [3]; 10µM WU-1, individual samples): 40.83 and 41.46
ATB-BMPA labeling, normalized Ave (PfHT [3]; 10µM WU-1, mean of 3): 40.69
remaining activity at 10 µM (PfHT [3]; read-out: ATB-BMPA labeling, Strep/Protein normalized to 100% Control, 10µM WU-1, individual samples): 39.8%
